From patent US20200345725A1, “Methods and Compositions for Treating Cancer” (Omeros Corporation, priority 2019, published 2020)
Several values for one entry are separate records, joined by “and”; a condition that tells them apart may be missing. Identical values can stand only once. Marks after values point to notes of the source that are not given here.

Tests used:
GPR174 = GPR174 (Homo sapiens, UniProt Q9BXC1); assay: CRE-Luc reporter Gs signaling assay with GPR174; format: cell-based; design: host or cells: HEK293 or CHO cell lines (ATCC)
human PBMCs = assay: Th1 cytokines in supernatants of stimulated human PBMC, GPR174 inhibitor with adenosine pathway inhibitors (Examples 15, 18-22); format: cell-based; details: donor 7
Protocol: Human PBMCs, obtained from a human volunteer donor, were dispensed at density of 1×10^6 cells/well in a 96-well flat-bottom plate and were stimulated in triplicate with 1 μg/mL anti-CD3 antibody (UCHT1) and 0.1 μg/mL anti-CD28 antibody (CD28.2) in the presence of:
Supernatants from these cells were collected at 24 hours post-stimulation and the levels of IFN-γ were determined by ELISA assay. Statistical analysis was carried out using one-way ANOVA with Tukey's post-hoc multiple comparison's correction.
Human PBMCs, obtained from a human volunteer donor (donor 1), were dispensed in X-vivo15 media (Lonza) supplemented with Glutamax, penicillin and streptomycin, at density of 1×10^6 cells/well in a 96-well flat-bottom plate and were stimulated with 1 μg/mL anti-CD3 antibody (UCHT1) and 0.1 μg/mL anti-CD28 antibody (CD28.2) in the presence of:
Supernatants from these cells were collected at 24 hours post-stimulation and the levels of IFN-γ, IL-2 and TNF were determined by ELISA assays.
Human PBMCs, obtained from two individual human volunteer donors (donor 2 and donor 3), were dispensed at density of 1×10^6 cells/well in a 96-well flat-bottom plate and were stimulated with 1 μg/mL anti-CD3 antibody (UCHT1) and 0.1 μg/mL anti-CD28 antibody (CD28.2) in the presence of:
Human PBMCs, obtained from twelve individual human volunteer donors were dispensed at density of 1×10^6 cells/well in a 96-well flat-bottom plate and were stimulated in triplicate with 1 μg/mL anti-CD3 antibody (UCHT1) and 0.1 μg/mL anti-CD28 antibody (CD28.2) in the presence of:
A total of 44 experiments using PBMC from 12 healthy donors were tested (9 donors for GM-CSF), with each donor tested in 1 to 8 separate experiments, depending on the donor (1 to 4 experiments each for GM-CSF). […] Cytokines were detected in supernatants with the Legendplex (Biolegend) or the MSB (MesoScale) platforms. […] One-way ANOVA with Tukey's post-hoc multiple comparisons correction was performed to identify significant differences (FC, mean fold change; ****, p<0.0001, ***, p<0.001; **, p<0.01; *, p<0.05, ns, not significant).
Human PBMC (1×10^6 cells/well in a 96-well flat-bottom plate) obtained from donor 3 and donor 6 were stimulated with 1 μg/mL anti-CD3 antibody (UCHT1) and 0.1 μg/mL anti-CD28 antibody (CD28.2) in the presence of:
Supernatants from these cells were collected at 24 hours post-stimulation and the levels of IFN-γ, IL-2, and TNF were determined with the MSD platform (MesoScale Discovery).
Human PBMC (1×10^6 cells/well in a 96-well flat-bottom plate) obtained from donor 7 were stimulated with 1 μg/mL […] (UCHT1) and 0.1 μg/mL anti-CD28 antibody (CD28.2) in the presence of:
Supernatants from these cells were collected at 24 hours post-stimulation and the levels of IFN-γ, IL-2, TNF and GM-CSF were determined with the MSD platform (MesoScale Discovery).
Supernatants from these cells were collected at 24 hours post-stimulation and the levels of IFN-γ, IL-2 and TNF were determined with the MSD platform (MesoScale Discovery).

[1] = high and low concentrations, ZM 0.1 μM
[2] = no ZM, 0.3 μM (compound 20: 3 μM)
[3] = no ZM, 1 μM (compound 20: 10 μM)
[4] = with ZM-241385 0.1 μM, 0.3 μM (compound 20: 3 μM)
[5] = with ZM-241385 0.1 μM, 1 μM (compound 20: 10 μM), label ZM = ZM alone

Sequence of GPR174 (Q9BXC1 whole entry): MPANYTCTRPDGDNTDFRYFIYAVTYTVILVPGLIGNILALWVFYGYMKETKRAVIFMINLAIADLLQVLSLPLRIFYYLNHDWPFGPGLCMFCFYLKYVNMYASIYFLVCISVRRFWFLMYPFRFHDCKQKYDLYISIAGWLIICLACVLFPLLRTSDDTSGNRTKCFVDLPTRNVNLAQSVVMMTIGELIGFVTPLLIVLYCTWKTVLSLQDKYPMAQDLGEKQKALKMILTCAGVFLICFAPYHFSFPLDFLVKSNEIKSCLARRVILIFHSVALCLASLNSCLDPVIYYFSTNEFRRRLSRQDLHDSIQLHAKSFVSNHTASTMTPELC

## O=C(c1ccccc1)N1CCN(c2cc(N3CCCCC3)c(F)cc2[N+](=O)[O-])CC1 [compound 6]
GPR174; increasing concentrations of compound
  Gs pathway in the presence of GPR174 (CRE-Luc reporter): inhibited
GPR174; pCRE-Luc reporter
  Fold decrease in Gs signaling activity: 3.8 fold
GPR174; pCRE-Luc reporter, multiple values = separate experiments
  EC50: 400 nM and 300 nM
Human PBMCs; [1]
  synergy with ZM on GM-CSF (greater than the sum of the increases with each inhibitor alone): synergized with ZM
  synergy with ZM on IFN-γ (greater than the sum of the increases with each inhibitor alone): synergized with ZM
  synergy with ZM on IL-2 (greater than the sum of the increases with each inhibitor alone): synergized with ZM
  synergy with ZM on TNF (greater than the sum of the increases with each inhibitor alone): synergized with ZM
Human PBMCs; [2]
  GM-CSF, ratio relative to vehicle control: 3.9*
  IFN-γ, ratio relative to vehicle control: 2.0*
  IL-2, ratio relative to vehicle control: 1.5*
  TNF, ratio relative to vehicle control: 2.1*
Human PBMCs; [3]
  GM-CSF, ratio relative to vehicle control: 2.9*
  IFN-γ, ratio relative to vehicle control: 1.9*
  IL-2, ratio relative to vehicle control: 1.5*
  TNF, ratio relative to vehicle control: 2.1*
Human PBMCs; [4]
  GM-CSF, ratio relative to vehicle control: 6.2*
  IFN-γ, ratio relative to vehicle control: 3.1*
  IL-2, ratio relative to vehicle control: 1.9*
  TNF, ratio relative to vehicle control: 3.4*
Human PBMCs; [5]
  GM-CSF, ratio relative to vehicle control: 6.0*
  IFN-γ, ratio relative to vehicle control: 3.8*
  IL-2, ratio relative to vehicle control: 2.1*
  TNF, ratio relative to vehicle control: 4.0*
